Measurements reported in patent publication US20160009752A1, “[…]-OXIMINO-AMINOALKYLETHERS AND PROCESS FOR PREPARATION THEREOF, USEFUL AS ANTIDIABETIC AND […] AGENTS” (COUNCIL OF SCIENTIFIC & INDUSTRIAL RESEARCH, priority 2013, published 2016).
Where two headings read alike, the source gives them in different places. Marks after values point to notes of the source that are not given here.

How the values were obtained:
[1] = test system: high fructose high fat fed Syrian golden hamsters; assay: Antidyslipidemic activity in high fructose high fat fed Syrian golden hamsters; format: in vivo
Description: Male Syrian golden hamsters weighing 100-120 g were divided into groups each containing six animals. Dyslipidemia was produced by feeding the animals with high fructose high fat diet (60% fructose, 13% fat) for 30 to 40 days. Dyslipidemic hamsters were divided into groups based on their Serum lipid profile. The dyslipidemic animals had free access to HFD and water throughout the experimental period. The fine suspension of 14b was fed orally at a dose of 30 mg/kg for 7 days to the animals. Control animals were given drug vehicle only, served as sham treated control. Body weight and diet intake of each animal group were recorded daily to check the effect of the test samples on food intake and body weight of the animals. At the end of the experiment period i.e. on day 8th, the blood of each animal was withdrawn from retro-orbital plexus. After keeping the tubes for 15 min. in cold, Serum was separated. Biochemical analysis of Serum was performed on the same day for triglycerides (TG), total cholesterol (TC) and HDL-cholesterol and LDL-cholesterol contents using Cobas Integra 400 plus analyzer kits. All statistical analysis will be performed with Graph Pad Prism Software. One way ANOVA, all pair wise multiple comparison procedure (Tukey test). Data will be reported as mean±SEM.

[2] = Pharmacokinetic study after oral and intravenous dose in rats; format: in vivo; design: Vd/F / Vd: unit not given here; conditions: rat
Excerpt: In order to study its bioavailability, the method of its quantitative determination in plasma matrices in rat was developed and validated. […] The method was applied in the analysis of PK samples obtained after oral and intravenous dose administration in rats.

[3] = Stability studies in rat plasma samples; format: in vitro ADME; conditions: freeze-thaw cycle, bench top, dry residue and long term conditions
Excerpt: The plasma of the rat treated with compound 14b was then processed for the stability study. The compound is found to be stable during freeze-thaw cycle, on the bench top, dry residue and long term conditions after extraction from plasma.

## C/C(=N\OCCN1CCCCC1)[C@H]1CC[C@H]2[C@@H]3CC=C4C[C@@H](O)CC[C@]4(C)[C@H]3CC[C@]12C [Compound 14b, 3β-Hydroxy-pregna-5-en-20-one-O-(2-piperidin-1-yl-ethyl)-oxime]
[1]; 30 mg/kg oral
  enhancement of lipoprotein lipase: 19.4%
  enhancement of serum HDL-cholesterol: 17.8%
  lowering of LDL-cholesterol (LDL-C) level: 32.3%
  lowering of non-esterified fatty acid (NEFA): 12.3%
  lowering of serum glycerol level: 25.7%
  lowering of serum triglycerides level (TG): 32.8%
  lowering of total cholesterol (T-Chol) level: 23.1%
[1]; 30 mg/kg p.o., 7 days
  Chol, change vs HFD control (in parentheses): (−23.1)* %
  Glycerol, change vs HFD control (in parentheses): (−25.7) %
  HDL-C, change vs HFD control (in parentheses): (+17.8) %
  LDL-C, change vs HFD control (in parentheses): (−32.3)* %
  Lipoprotein lipase, change vs HFD control (in parentheses): (+19.4) %
  NEFA, change vs HFD control (in parentheses): (−12.3) %
  TG, change vs HFD control (in parentheses): (−32.8)* %
[1]; 30 mg/kg p.o., 7 days, serum
  Chol: 257.2 ± 22.4 mg/dL
  Glycerol: 1004.9 ± 40.2 µmol/L
  HDL-C: 168.2 ± 8.90 mg/dL
  LDL-C: 179.6 ± 13.2 mg/dL
  Lipoprotein lipase: 36.3 ± 3.90 U/L
  NEFA: 5.70 ± 0.42 mmol/L
  TG: 501.8 ± 45.7 mg/dL
[1]; vs control group, FIG. 10
  effect on body weight, in words: effectively inhibited the rise in body weight
[2]; oral dosing
  absorption, in words: slow absorption
  time at which plasma concentrations peaked post-dose: ≥ 10 h
[2]; plasma, intravenous route
  AUC(0-t): 826 ± 88.7 ng·h/mL
  C0: 166 ± 90.2 ng/mL
  MRT: 25.3 ± 1.99 h
  clearance: 206 mL/min/kg
[2]; plasma, intravenous route, read-out: T1/2 (converted)
  half-life: 15.4 ± 1.25 h
[2]; plasma, intravenous route, read-out: Vz
  Vd: 268 ± 11.3
[2]; plasma, oral route
  AUC(0-inf): 1210 ± 166 ng·h/mL
  CL/F: 603 mL/min/kg
  Cmax: 40.4 ± 7.03 ng/mL
  MRT: 23.2 ± 1.31 h
  bioavailability: 33.6%
[2]; plasma, oral route, read-out: T1/2 (converted)
  half-life: 14.3 ± 0.95 h
[2]; plasma, oral route, read-out: Vz/F
  Vd/F: 739 ± 87.1
[2]; plasma, route not stated, read-out: elimination half-life
  half-life: > 14 h
[2]
  clearance, in words: large clearance
[2]; in vivo
  bio-availability, in words: good bio-availability
[3]
  stability after extraction from plasma: stable
